# Measured values reported in patent US11602520B2, “c-Met regulatory composition and its method for treating liver disease” (priority 2020, dated 2023).
# Legend:
# [1] = Cell viability analysis (1), normal hepatocytes, MTS kit; type: cell-based, mice; details: mouse, FL83B normal hepatocytes, 24 hours, read-out: Cell viability (%, relative to the blank group)
# Procedure: (§1) Normal hepatocytes of FL83B mice are divided into several groups (FL83B 1×10^4 cells/well), an amount of cells in each of the groups is treated under different conditions respectively and cultured for 24 hours. Then, the commercially available MTS cell viability analysis kit (CellTiter-Glo® One Solution Assay) is used to analyze the cell viability of each of the groups, the treatment condition of each of the groups of cells and the corresponding survival rate are shown in Table 1 to Table 3 below.
# [2] = tested on: Normal hepatocytes of FL83B mice; experiment: as above; type: cell-based; details: for Cell viability (%, relative to the blank group): 24 hours
# Procedure: as §1
# c-Met = experiment: Gene expression analysis, real-time qPCR, c-Met; type: cell-based, mice
# Procedure: (§2) Normal hepatocytes of FL83B mice are divided into several groups (FL83B 1×10^4 cells/well), and treated with 10 mM acetaminophen for 24 hours respectively to make the hepatic cells in a damaged state, the acetaminophen is removed and then the hepatic cells are treated with different concentrations of the Antrodin A and/or the DMB for 24 hours. Then, the commercially available MTS cell viability analysis kit (CellTiter-Glo® One Solution Assay) is used to analyze the cell viability of each of the groups, the treatment condition of each of the groups of cells and the corresponding survival rate are shown in Table 4 to Table 6 below.
# (§3) Real-time qPCR kits are used to analyze the gene expression in cells treated with different concentrations of the Antrodin A and the DMB in Example 2, and the results are shown in Tables 7 to 9 below.
# Notch-2 = experiment: Gene expression analysis, real-time qPCR, Notch-2 RNA; type: cell-based, mice
# Procedure: as §2, §3
# [3] = tested on: Normal hepatocytes of FL83B mice treated with 10 mM acetaminophen (damaged hepatic cells); experiment: Cell viability analysis (2), hepatocytes damaged with 10 mM acetaminophen; type: cell-based; details: after acetaminophen damage
# Procedure: as §2
smiles,measurement,setting,value
"COc1cc(C)c(OC)c2c1OCO2 [DMB, 4,7-Dimethoxy-5-methyl-1,3-benzodioxole]","viability at 24 h, 1.25 ppm",[1]; DMB 1.25 ppm,112 ± 2.4%
same,"viability at 24 h, 2.5 ppm",[1]; DMB 2.5 ppm,114 ± 1.5%
same,"viability at 24 h, 5 ppm",[1]; DMB 5 ppm,115 ± 2%
same,"viability at 24 h, 10 ppm",[1]; DMB 10 ppm,113 ± 3.4%
same,"viability at 24 h, 20 ppm",[1]; DMB 20 ppm,111 ± 4%
same,toxicity to the normal hepatic cells (in words),[2]; various concentrations,does not cause toxicity to the normal hepatic cells
same,expression level of c-Met in damaged hepatic cells (in words),c-Met,increase the expression levels of c-Met and Notch
same,expression level of Notch in damaged hepatic cells (in words),Notch-2,increase the expression levels of c-Met and Notch
same,viability at 2.5 ppm,"[3]; Mus musculus, FL83B, DMB 2.5 ppm, 24 hours, read-out: Cell viability (%, relative to the blank group)",114 ± 3.9%
same,viability at 5 ppm,"[3]; Mus musculus, FL83B, DMB 5 ppm, 24 hours, read-out: Cell viability (%, relative to the blank group)",104 ± 4.4%
same,viability at 10 ppm,"[3]; Mus musculus, FL83B, DMB 10 ppm, 24 hours, read-out: Cell viability (%, relative to the blank group)",78.2 ± 8.8%
same,viability at 17.5 ppm,"[3]; Mus musculus, FL83B, DMB 17.5 ppm, 24 hours, read-out: Cell viability (%, relative to the blank group)",103 ± 7.7%
same,repair of damaged hepatic cells (in words),[3],capable of repairing the damaged hepatic cells and increasing the activity of the hepatic cells
CC(C)=CCOc1ccc(C2=C(CC(C)C)C(=O)OC2=O)cc1 [Antrodin A],"Cell viability (%, relative to the blank group)",[2]; Antrodin A 8.75 ppm,95.8 ± 4.8%
same,"Cell viability (%, relative to the blank group)",[2]; Antrodin A 17.5 ppm,107.1 ± 1.2%
same,"Cell viability (%, relative to the blank group)",[2]; Antrodin A 35 ppm,106.8 ± 6.5%
same,"Cell viability (%, relative to the blank group)",[2]; Antrodin A 70 ppm,108.5 ± 5.7%
same,"Cell viability (%, relative to the blank group)",[2]; Antrodin A 140 ppm,50.8 ± 4.4%
same,activity and survival rate of the normal hepatic cells (in words),[2]; concentration of 8.75 to 70 ppm,capable of effectively maintaining and enhancing the activity and survival rate of the normal hepatic cells
same,toxicity to hepatic cells (in words),[2]; concentration of 140 ppm,toxic to hepatic cells
same,expression level of c-Met in damaged hepatic cells (in words),c-Met,increase the expression levels of c-Met and Notch
same,expression level of Notch in damaged hepatic cells (in words),Notch-2,increase the expression levels of c-Met and Notch
same,repair of damaged hepatic cells (in words),[3],capable of repairing the damaged hepatic cells and increasing the activity of the hepatic cells
same,"Cell viability (%, relative to the blank group)","[3]; Antrodin A 17.5 ppm, 24 hours",101.9 ± 10.7%
same,"Cell viability (%, relative to the blank group)","[3]; Antrodin A 35 ppm, 24 hours",90.2 ± 9.9%
same,"Cell viability (%, relative to the blank group)","[3]; Antrodin A 70 ppm, 24 hours",102.7 ± 3.3%
